# Measurements published in US10770169B2, “Method of providing a treatment to a subject based on a dynamic pathway map” (THE REGENTS OF THE UNIVERSITY OF CALIFORNIA, priority 2010, dated 2020).
# Read-outs that look alike come from different tables or passages of the source.
# Tested on: panel of 55 breast cancer cell lines
# Assay: Cell growth inhibition assay (Cell Titer Glo, 72 h, 9 doses; GI50, TGI, LC50)
# Format: cell-based, human
smiles,measurement,setting,value
COc1cccc(-c2cc(=O)c3ccccc3o2)c1N [PD 98059],GI50,"AU565 cell line, censored GI50 values, value is the negative log10 of mol/L",5.12
same,GI50,"CAMA1 cell line, censored GI50 values, value is the negative log10 of mol/L",4.65
same,GI50,"HCC1187 cell line, censored GI50 values, value is the negative log10 of mol/L",5.56
same,GI50,"HCC1937 cell line, censored GI50 values, value is the negative log10 of mol/L",4.50
same,GI50,"cell line 600MPE, value is the negative log10 of mol/L",4.30
same,GI50,"cell line AU565, value is the negative log10 of mol/L",5.12
same,GI50,"cell line BT20, value is the negative log10 of mol/L",4.04
same,GI50,"cell line BT474, value is the negative log10 of mol/L",4.00
same,GI50,"cell line BT483, value is the negative log10 of mol/L",4.12
same,GI50,"cell line CAMA1, value is the negative log10 of mol/L",4.65
same,GI50,"cell line HCC70, value is the negative log10 of mol/L",4.30
same,GI50,"cell line HCC1143, value is the negative log10 of mol/L",4.00
same,GI50,"cell line HCC1187, value is the negative log10 of mol/L",5.56
same,GI50,"cell line HCC1395, value is the negative log10 of mol/L",4.00
same,GI50,"cell line HCC1419, value is the negative log10 of mol/L",4.20
same,GI50,"cell line HCC1428, value is the negative log10 of mol/L",4.12
same,GI50,"cell line HCC1806, value is the negative log10 of mol/L",4.30
same,GI50,"cell line HCC1937, value is the negative log10 of mol/L",4.50
same,GI50,"cell line HCC1954, value is the negative log10 of mol/L",4.30
same,GI50,"cell line HCC2185, value is the negative log10 of mol/L",4.55
same,GI50,"cell line MDAMB134V, value is the negative log10 of mol/L",4.12
same,GI50,"cell line MDAMB175V, value is the negative log10 of mol/L",4.24
same,GI50,"cell line MDAMB361, value is the negative log10 of mol/L",4.30
same,GI50,"cell line MDAMB468, value is the negative log10 of mol/L",4.32
same,GI50,"cell line SKBR3, value is the negative log10 of mol/L",4.73
same,GI50,"cell line SUM52PE, value is the negative log10 of mol/L",4.92
same,GI50,"cell line SUM149PT, value is the negative log10 of mol/L",4.44
same,GI50,"cell line SUM159PT, value is the negative log10 of mol/L",4.30
same,GI50,"cell line SUM185PE, value is the negative log10 of mol/L",4.88
same,GI50,"cell line SUM225CWN, value is the negative log10 of mol/L",4.42
same,GI50,"cell line SUM1315MO, value is the negative log10 of mol/L",4.30
same,GI50,"cell line T47D, value is the negative log10 of mol/L",4.30
same,GI50,"cell line UACC812, value is the negative log10 of mol/L",4.27
same,GI50,"cell line ZR75B, value is the negative log10 of mol/L",4.00
same,GI50,"cell line ZR751, value is the negative log10 of mol/L",4.32
Cn1c(=O)n(-c2ccc(C(C)(C)C#N)cc2)c2c3cc(-c4cnc5ccccc5c4)ccc3ncc21 [BEZ235],GI50,"Homo sapiens, AU565, AU565 cell line, censored GI50 values, read-out: GI50 (converted)",257 nM
same,GI50,"Homo sapiens, AU565, cell line AU565, read-out: GI50 (converted)",257 nM
same,GI50,"Homo sapiens, BT-20, BT20 cell line, censored GI50 values, read-out: GI50 (converted)",3800 nM
same,GI50,"Homo sapiens, BT-20, cell line BT20, read-out: GI50 (converted)",3800 nM
same,GI50,"Homo sapiens, BT-474, BT474 cell line, censored GI50 values, read-out: GI50 (converted)",347 nM
same,GI50,"Homo sapiens, BT-474, cell line BT474, read-out: GI50 (converted)",347 nM
same,GI50,"Homo sapiens, BT-483, BT483 cell line, censored GI50 values, read-out: GI50 (converted)",11200 nM
same,GI50,"Homo sapiens, BT-483, cell line BT483, read-out: GI50 (converted)",11200 nM
same,GI50,"Homo sapiens, CAMA-1, CAMA1 cell line, censored GI50 values, read-out: GI50 (converted)",16600 nM
same,GI50,"Homo sapiens, CAMA-1, cell line CAMA1, read-out: GI50 (converted)",16600 nM
same,GI50,"Homo sapiens, HCC38, HCC38 cell line, censored GI50 values, read-out: GI50 (converted)",490 nM
same,GI50,"Homo sapiens, HCC38, cell line HCC38, read-out: GI50 (converted)",490 nM
same,GI50,"Homo sapiens, HCC70, HCC70 cell line, censored GI50 values, read-out: GI50 (converted)",158 nM
same,GI50,"Homo sapiens, HCC70, cell line HCC70, read-out: GI50 (converted)",158 nM
same,GI50,"Homo sapiens, HCC1187, cell line HCC1187, read-out: GI50 (converted)",33100 nM
same,GI50,"Homo sapiens, HCC1428, HCC1428 cell line, censored GI50 values, read-out: GI50 (converted)",17000 nM
same,GI50,"Homo sapiens, HCC1428, cell line HCC1428, read-out: GI50 (converted)",17000 nM
same,GI50,"Homo sapiens, HCC1954, HCC1954 cell line, censored GI50 values, read-out: GI50 (converted)",52.5 nM
same,GI50,"Homo sapiens, HCC1954, cell line HCC1954, read-out: GI50 (converted)",52.5 nM
same,GI50,"Homo sapiens, HCC2185 cell line, censored GI50 values, read-out: GI50 (converted)",263 nM
same,GI50,"Homo sapiens, HCC3153 cell line, censored GI50 values, read-out: GI50 (converted)",646 nM
same,GI50,"Homo sapiens, MCF7, MCF7 cell line, censored GI50 values, read-out: GI50 (converted)",589 nM
same,GI50,"Homo sapiens, MCF7, cell line MCF7, read-out: GI50 (converted)",589 nM
same,GI50,"Homo sapiens, MDA-MB-134-VI, MDAMB134VI cell line, censored GI50 values, read-out: GI50 (converted)",1000 nM
same,GI50,"Homo sapiens, MDA-MB-175-VII, MDAMB175VII cell line, censored GI50 values, read-out: GI50 (converted)",1150 nM
same,GI50,"Homo sapiens, MDA-MB-361, MDAMB361 cell line, censored GI50 values, read-out: GI50 (converted)",813 nM
same,GI50,"Homo sapiens, MDA-MB-361, cell line MDAMB361, read-out: GI50 (converted)",813 nM
same,GI50,"Homo sapiens, MDA-MB-415, MDAMB415 cell line, censored GI50 values, read-out: GI50 (converted)",263 nM
same,GI50,"Homo sapiens, MDA-MB-415, cell line MDAMB415, read-out: GI50 (converted)",263 nM
same,GI50,"Homo sapiens, MDA-MB-453, MDAMB453 cell line, censored GI50 values, read-out: GI50 (converted)",132 nM
same,GI50,"Homo sapiens, MDA-MB-453, cell line MDAMB453, read-out: GI50 (converted)",132 nM
same,GI50,"Homo sapiens, MDA-MB-468, cell line MDAMB468, read-out: GI50 (converted)",33100 nM
same,GI50,"Homo sapiens, SK-BR-3, SKBR3 cell line, censored GI50 values, read-out: GI50 (converted)",589 nM
same,GI50,"Homo sapiens, SK-BR-3, cell line SKBR3, read-out: GI50 (converted)",589 nM
same,GI50,"Homo sapiens, SUM52PE, SUM52PE cell line, censored GI50 values, read-out: GI50 (converted)",17000 nM
same,GI50,"Homo sapiens, SUM52PE, cell line SUM52PE, read-out: GI50 (converted)",17000 nM
same,GI50,"Homo sapiens, SUM149PT, SUM149PT cell line, censored GI50 values, read-out: GI50 (converted)",269 nM
same,GI50,"Homo sapiens, SUM149PT, cell line SUM149PT, read-out: GI50 (converted)",269 nM
same,GI50,"Homo sapiens, SUM185PE, SUM185PE cell line, censored GI50 values, read-out: GI50 (converted)",15100 nM
same,GI50,"Homo sapiens, SUM185PE, cell line SUM185PE, read-out: GI50 (converted)",15100 nM
same,GI50,"Homo sapiens, SUM1315MO2, SUM1315MO2 cell line, censored GI50 values, read-out: GI50 (converted)",224 nM
same,GI50,"Homo sapiens, SUM-159-PT, SUM159PT cell line, censored GI50 values, read-out: GI50 (converted)",36.3 nM
same,GI50,"Homo sapiens, SUM-159-PT, cell line SUM159PT, read-out: GI50 (converted)",36.3 nM
same,GI50,"Homo sapiens, T47D, T47D cell line, censored GI50 values, read-out: GI50 (converted)",282 nM
same,GI50,"Homo sapiens, T47D, cell line T47D, read-out: GI50 (converted)",282 nM
same,GI50,"Homo sapiens, UACC-812, UACC812 cell line, censored GI50 values, read-out: GI50 (converted)",16600 nM
same,GI50,"Homo sapiens, UACC-812, cell line UACC812, read-out: GI50 (converted)",16600 nM
same,GI50,"Homo sapiens, ZR-75-1, ZR751 cell line, censored GI50 values, read-out: GI50 (converted)",16600 nM
same,GI50,"Homo sapiens, ZR-75-1, cell line ZR751, read-out: GI50 (converted)",16600 nM
same,GI50,"Homo sapiens, ZR-75B, ZR75B cell line, censored GI50 values, read-out: GI50 (converted)",141 nM
same,GI50,"Homo sapiens, ZR-75B, cell line ZR75B, read-out: GI50 (converted)",141 nM
same,GI50,"Homo sapiens, cell line HCC2185, read-out: GI50 (converted)",263 nM
same,GI50,"Homo sapiens, cell line HCC3153, read-out: GI50 (converted)",646 nM
same,GI50,"Homo sapiens, cell line MDAMB134V, read-out: GI50 (converted)",1000 nM
same,GI50,"Homo sapiens, cell line MDAMB175V, read-out: GI50 (converted)",1150 nM
same,GI50,"Homo sapiens, cell line SUM1315MO, read-out: GI50 (converted)",224 nM
